In patent US10039752B2 (Cipla Limited, priority 2016, dated 2018):
Like-named read-outs stand apart in the source and are kept apart here.

Tests used:
[1] = tested on: PAXF 1986L, PAXF 546L, PAXF Capan-2, and PAXF MIA-Pa-Ca-2; experiment: cells; conditions: Homo sapiens, 192 h, read-out: relative IC50 values, range over four cell lines
Procedure: The clonogenic assay was carried out in a 96 well plate format using ultra low attachment plates. For each test cells were prepared as described above, and assay plates were prepared as follows: each test well contained a layer of semi-solid medium with tumor cells (50 μl), and a second layer of medium supernatant with or without test compounds (100 μl). […] The soft-agar layer was immediately covered with 90 μl of the same culture medium without agar. After 24 hour the test compounds were added after serial dilution in IMDM and transfer in cell culture medium, and left on the cells for the duration of the experiment (continuous exposure, 100 μL total drug overlay). Every plate included six untreated control wells and drug-treated groups in a layout as shown above. […] Within this period, ex vivo tumor growth led to the formation of colonies with a diameter of >50 μm. At the time of maximum colony formation, counts were performed with an automatic image analysis system (CellInsight NXT, Thermo Scientific). 48 hours prior to evaluation, vital colonies were stained with a sterile aqueous solution of 2-(4-iodophenyl)-3-(4-nitrophenyl)-5-phenyltetrazolium chloride (1 mg/ml, 100 μl/well).

[2] = tested on: human pancreatic cancer xenografts (PDX model PAXF 546); experiment: In vivo animal efficacy study; set-up: species or system Nude mice; conditions: for Mean Tumor volume: methazolamide 60 mg/kg p.o., gemcitabine 50 mg/kg i.v. Q7D, in mm³; for tumor growth inhibition: methazolamide 60 mg/kg orally, gemcitabine 50 mg/kg i.v.
[3] = tested on: twelve selected human pancreatic cancer cell lines; experiment: cells; conditions: for IC50: Homo sapiens, Pancreatic cancer cell
Source text: (§1) PAXF 546L, PAXF 1986L, PAXF 1998L, PAXF 2005L and PAXF 2059L were established at Oncotest from the corresponding human patient derived xenograft. CAPAN-2, HUP-T3 and PA-TU-8902 were purchased from DSMZ (Braunschweig, Germany). PANC-1 was purchased from CLS Cell Line Services GmbH (Eppelheim, Germany). BxPC-3, HPAC and MIA-Pa-Ca-2 were purchased from ATCC (Rockville, Md., USA). Authenticity of cell lines was confirmed at the DSMZ by STR (short tandem repeat) analysis, a PCR based DNA-fingerprinting methodology. Cell lines were routinely passaged once or twice weekly and maintained in culture for up to 20 passages. All cells were grown at 37° C. in a humidified atmosphere with 5% CO2 in RPMI 1640 medium (25 mM HEPES, with L-glutamine, #FG1385, Biochrom, Berlin, Germany) supplemented with 10% (v/v) fetal calf serum (Sigma, Taufkirchen, Germany) and 0.1 mg/mL gentamicin (Life Technologies, Karlsruhe, Germany).
(§2) The CellTiter-Blue® Cell Viability Assay (#G8081, Promega) was used according to manufacturer's instructions. Briefly, cells were harvested from exponential phase cultures, counted and plated in 96-well flat-bottom microtiter plates at a cell density of 6,000-20,000 cells/well depending on the cell line's growth rate. After a 24 hours recovery period to allow the cells to resume exponential growth, test compounds were added. […] After 96 hours treatment of cells, 20 μL/well CellTiter-Blue® reagent was added. Following an incubation period of up to four hours, fluorescence (FU) was measured by using the Enspire Multimode Plate Reader (excitation λ=531 nm, emission λ=615 nm). For calculations, the mean values of duplicate/quadruplicate (untreated control) data were used. Sigmoidal concentration-response curves were fitted to the data points (T/C values) obtained for each cell line using 4 parameter non-linear curve fit (Oncotest Warehouse Software).

PAXF MIA-Pa-Ca-2 [4] = experiment: cells; conditions: Homo sapiens, MIA PaCa-2, 96 h
Source text: as §1, §2

PAXF MIA-Pa-Ca-2 [5] = experiment: cells; conditions: Homo sapiens
Procedure: (§3) Cell lines were routinely passaged one or twice weekly.
Tumor xenografts (patient-derived, as well as cell line-derived xenografts) were passaged as subcutaneous xenografts in NMRI nu/nu mice. […] The percentage of viable cells was determined in a Neubauer-hemocytometer using trypan blue exclusion. Aliquots of the cells were frozen down, and stored in liquid nitrogen. On each day of an experiment, a frozen aliquot of tumor cells was thawed and used for preparation of assay plates.

PAXF 2005 = experiment: In vitro 3D clonogenic assay; assay type: cell-based; conditions: Homo sapiens
Source text: as §3

PAXF CAPAN-2 [6] = experiment: In vitro 3D clonogenic assay; assay type: cell-based; conditions: Homo sapiens
Source text: as §3

PAXF PA-TU-8902 [7] = experiment: In vitro 3D clonogenic assay; assay type: cell-based; conditions: Homo sapiens
Source text: as §3

PAXF BxPC-3 [8] = experiment: In vitro 3D clonogenic assay; assay type: cell-based; conditions: Homo sapiens
Source text: as §3

PAXF PANC-1 [9] = experiment: In vitro 3D clonogenic assay; assay type: cell-based; conditions: Homo sapiens
Source text: as §3

PAXF HPAC [10] = experiment: In vitro 3D clonogenic assay; assay type: cell-based; conditions: Homo sapiens
Source text: as §3

PAXF 1986 = experiment: In vitro 3D clonogenic assay; assay type: cell-based; conditions: Homo sapiens
Source text: as §3

PAXF 1982 = experiment: In vitro 3D clonogenic assay; assay type: cell-based; conditions: Homo sapiens
Source text: as §3

PAXF 2059 = experiment: In vitro 3D clonogenic assay; assay type: cell-based; conditions: Homo sapiens
Source text: as §3

PAXF 546 = experiment: In vitro 3D clonogenic assay; assay type: cell-based; conditions: Homo sapiens
Source text: as §3

[11] = tested on: 11 human tumor xenograft-derived cell suspensions or tumor cell lines of pancreatic cancer; experiment: In vitro 3D clonogenic assay, whole panel (geometric mean); assay type: cell-based
Source text: as §3

PAXF 1986L = experiment: In vitro 2-D assay (CellTiter-Blue cell viability, 96 h); assay type: cell-based; conditions: Homo sapiens, PAXF 1986, 96 hours treatment
Source text: as §1, §2

PAXF HUP-T3 = experiment: as above; assay type: cell-based; conditions: Homo sapiens, PAXF HUP-T3, 96 hours treatment
Source text: as §1, §2

PAXF 546L = experiment: as above; assay type: cell-based; conditions: Homo sapiens, PAXF 546, 96 hours treatment
Source text: as §1, §2

PAXF 2059L = experiment: as above; assay type: cell-based; conditions: Homo sapiens, PAXF 2059, 96 hours treatment
Source text: as §1, §2

PAXF CAPAN-2 [12] = experiment: as above; assay type: cell-based; conditions: Homo sapiens, PAXF CAPAN-2, 96 hours treatment
Source text: as §1, §2

PAXF PA-TU-8902 [13] = experiment: as above; assay type: cell-based; conditions: Homo sapiens, PaTu 8902, PAXF PA-TU-8902, 96 hours treatment
Source text: as §1, §2

PAXF BxPC-3 [14] = experiment: as above; assay type: cell-based; conditions: Homo sapiens, PAXF BxPC-3, 96 hours treatment
Source text: as §1, §2

PAXF PANC-1 [15] = experiment: as above; assay type: cell-based; conditions: Homo sapiens, PAXF PANC-1, 96 hours treatment
Source text: as §1, §2

PAXF HPAC [16] = experiment: as above; assay type: cell-based; conditions: Homo sapiens, 96 hours treatment
Source text: as §1, §2

PAXF 2005L = experiment: as above; assay type: cell-based; conditions: Homo sapiens, PAXF 2005, 96 hours treatment
Source text: as §1, §2

PAXF 1998L = experiment: as above; assay type: cell-based; conditions: Homo sapiens, PAXF 1998, 96 hours treatment
Source text: as §1, §2

Compound: Nc1ccn([C@@H]2O[C@H](CO)[C@@H](O)C2(F)F)c(=O)n1 [Gemcitabine, gemcitabine]
- IC50 [1]: 0.013 to 0.062 µM
- Mean Tumor volume ([2]; day 1): 119.84
- Mean Tumor volume ([2]; day 3): 172.26
- Mean Tumor volume ([2]; day 9): 214.28
- Mean Tumor volume ([2]; day 12): 262.19
- Mean Tumor volume ([2]; day 15): 312.84
- Mean Tumor volume ([2]; day 18): 334.59
- Mean Tumor volume ([2]; day 21): 382.57
- Mean Tumor volume ([2]; day 24): 454.56
- Mean Tumor volume ([2]; day 28): 592.69
- Mean Tumor volume ([2]; day 31): 648.88
- Mean Tumor volume ([2]; day 34): 696.91
- tumor growth inhibition [2]: 61%

Compound: CC(=O)N=c1sc(S(N)(=O)=O)nn1C [Methazolamide, N-[5-(aminosulfonyl)-3-methyl-1,3,4-thiadiazol-2(3H)-ylidene]acetamide]
- IC50 [1]: 297 to 806 µM
- activity, shape of concentration-effect curves ([3]; 2-D, all cell lines tested): concentration-dependent activity with sigmoidal concentration-effect curves
- IC50 ([3]; read-out: Absolute IC50, Geometric Mean): 1.84 mM
- IC50 ([3]; read-out: Individual IC50 values, range over cell lines): 0.726 to 5.35 mM
- IC50 ([3]; read-out: Relative IC50, Geometric Mean): 1.88 mM
- IC50 (PAXF MIA-Pa-Ca-2 [4]; read-out: Absolute IC50): 1.52 mM
- IC50 (PAXF MIA-Pa-Ca-2 [4]; read-out: Relative IC50): 1.76 mM
- Mean Tumor volume ([2]; day 1): 94.47
- Mean Tumor volume ([2]; day 3): 121.60
- Mean Tumor volume ([2]; day 9): 151.64
- Mean Tumor volume ([2]; day 12): 189.82
- Mean Tumor volume ([2]; day 15): 253.64
- Mean Tumor volume ([2]; day 18): 341.73
- Mean Tumor volume ([2]; day 21): 470.79
- Mean Tumor volume ([2]; day 24): 583.90
- Mean Tumor volume ([2]; day 28): 718.08
- Mean Tumor volume ([2]; day 31): 836.82
- Mean Tumor volume ([2]; day 34): 916.02
- tumor growth inhibition [2]: up to 50%
- IC50 (PAXF MIA-Pa-Ca-2 [5]; MIA PaCa-2, read-out: Absolute IC50): 533 µM
- IC50 (PAXF MIA-Pa-Ca-2 [5]; MIA PaCa-2, read-out: Relative IC50): 489 µM
- IC50 (PAXF 2005; read-out: Absolute IC50): 523 µM
- IC50 (PAXF 2005; read-out: Relative IC50): 603 µM
- IC50 (PAXF CAPAN-2 [6]; read-out: Absolute IC50): 568 µM
- IC50 (PAXF CAPAN-2 [6]; read-out: Relative IC50): 620 µM
- IC50 (PAXF PA-TU-8902 [7]; PaTu 8902, read-out: Absolute IC50): 2.11 mM
- IC50 (PAXF PA-TU-8902 [7]; PaTu 8902, read-out: Relative IC50): 2.57 mM
- IC50 (PAXF BxPC-3 [8]; read-out: Absolute IC50): 837 µM
- IC50 (PAXF BxPC-3 [8]; read-out: Relative IC50): 808 µM
- IC50 (PAXF PANC-1 [9]; read-out: Absolute IC50): 1.76 mM
- IC50 (PAXF PANC-1 [9]; read-out: Relative IC50): 1.82 mM
- IC50 (PAXF HPAC [10]; read-out: Absolute IC50): 1.36 mM
- IC50 (PAXF HPAC [10]; read-out: Relative IC50): 1.09 mM
- IC50 (PAXF 1986; read-out: Absolute IC50): 464 µM
- IC50 (PAXF 1986; read-out: Relative IC50): 486 µM
- IC50 (PAXF 1982; read-out: Absolute IC50): 703 µM
- IC50 (PAXF 1982; read-out: Relative IC50): 725 µM
- IC50 (PAXF 2059; read-out: Absolute IC50): 820 µM
- IC50 (PAXF 2059; read-out: Relative IC50): 754 µM
- IC50 (PAXF 546; PAXF546, read-out: Absolute IC50): 346 µM
- IC50 (PAXF 546; PAXF546, read-out: Relative IC50): 336 µM
- IC50 ([11]; read-out: Absolute IC50, Geometric mean): 777 µM
- IC50 ([11]; read-out: Relative IC50, Geometric mean): 783 µM
- IC50 (PAXF 1986L; read-out: Absolute IC50): 1.85 mM
- IC50 (PAXF 1986L; read-out: Relative IC50): 1.67 mM
- IC50 (PAXF HUP-T3; read-out: Absolute IC50): 726 µM
- IC50 (PAXF HUP-T3; read-out: Relative IC50): 711 µM
- IC50 (PAXF 546L; read-out: Absolute IC50): 2.32 mM
- IC50 (PAXF 546L; read-out: Relative IC50): 3.05 mM
- IC50 (PAXF 2059L; read-out: Absolute IC50): 2.04 mM
- IC50 (PAXF 2059L; read-out: Relative IC50): 1.79 mM
- IC50 (PAXF CAPAN-2 [12]; read-out: Absolute IC50): 2.03 mM
- IC50 (PAXF CAPAN-2 [12]; read-out: Relative IC50): 2.04 mM
- IC50 (PAXF PA-TU-8902 [13]; read-out: Absolute IC50): 1.03 mM
- IC50 (PAXF PA-TU-8902 [13]; read-out: Relative IC50): 1.13 mM
- IC50 (PAXF BxPC-3 [14]; read-out: Absolute IC50): 1.96 mM
- IC50 (PAXF BxPC-3 [14]; read-out: Relative IC50): 2.34 mM
- IC50 (PAXF PANC-1 [15]; read-out: Absolute IC50): 1.54 mM
- IC50 (PAXF PANC-1 [15]; read-out: Relative IC50): 1.59 mM
- IC50 (PAXF HPAC [16]; read-out: Absolute IC50): 5.35 mM
- IC50 (PAXF HPAC [16]; read-out: Relative IC50): 5.51 mM
- IC50 (PAXF 2005L; read-out: Absolute IC50): 1.84 mM
- IC50 (PAXF 2005L; read-out: Relative IC50): 1.58 mM
- IC50 (PAXF 1998L; read-out: Absolute IC50): 2.51 mM
- IC50 (PAXF 1998L; read-out: Relative IC50): 2.23 mM
